In patent US7825103B2, “Pyrimidine nucleoside compound or its salt” (Taiho Pharmaceutical Co., Ltd., priority 2005, dated 2010):

Legend:
[1] = tested on: Human large intestine cancer cell strain KM20C; experiment: Anti-tumor test using nude mouse subcutaneous implantation system, peroral administration in an equitoxic dose; assay type: in vivo, BALB/cA Jcl-nu mice; conditions: peroral once a day for 14 days, FIG. 1
Protocol: Human large intestine cancer cell strain KM20C was subcutaneously subcultured in BALB/cA Jcl-nu mice (CLEA Japan, Inc.), and the resultant cancer tissues were cut into 2 mm dice fragments. Each of the fragments was subcutaneously implanted to a 6-week-old BALB/cA Jcl-nu mouse at the back thereof. On day 15 after the implantation, large and small diameters of the resultant tumor were measured, and the volume of the tumor was calculated through use of the following equation. The mice were grouped (6 animals per group) so that the average tumor volume was common to each group. Vt=½(Vl)×(Vs)^2 (Equation 5) In the equation, Vt represents tumor volume, Vl represents large diameter of tumor, and Vs represents small diameter of tumor.
CNDAC, P-CNDAC, or Compound 19 was dissolved or suspended in 0.5% hydroxypropyl methyl cellulose solution which had been buffered with 100 mM citrate buffer (pH 5.0). From the next day of grouping, the mixture was perorally administered to each mouse once a day for consecutive 14 days in an equitoxic dose.
Large and small diameters of the subcutaneously implanted tumor of each mouse were measured twice a week, and relative tumor volume (RTV) was calculated as an index indicating tumor growth through use of the following equations to evaluate anti-tumor effect of the compound. RTV=Vt1/Vt2 (Equation 6) In the equation, RTV represents ratio of tumor volume, Vt1 represents tumor volume measured on the day of determination, and Vt2 represents tumor volume measured on the day of grouping.

[2] = tested on: Human large intestine cancer cell strain KM20C; experiment: Anti-tumor test using nude mouse subcutaneous implantation system with peroral administration of CNDAC compound; assay type: in vivo, BALB/cA Jcl-nu mice; conditions: Mus musculus, sc, 696 h; peroral once a day for 14 days, dose equivalent by mole to 18 mg/kg/day of CNDAC; day 29 after grouping; KM20C subcutaneous implant; read-out: IR (%) tumor growth inhibition rate
Protocol: Human large intestine cancer cell strain KM20C was subcutaneously subcultured in BALB/cA Jcl-nu mice (CLEA Japan, Inc.), and the resultant cancer tissues were cut into 2 mm dice fragments. Each of the fragments was subcutaneously implanted to a 6-week-old BALB/cA Jcl-nu mouse at the back thereof. On day 14 after the implantation, large and small diameters of the resultant tumor were measured, and the volume of the tumor was calculated by the following equation. The mice were grouped (6 animals per group) so that the groups were roughly equal in terms of average tumor volume. Vt=½(Vl)×(Vs)^2 (Equation 1) In the equation, Vt represents tumor volume, Vl represents large diameter of tumor, and Vs represents small diameter of tumor.
Each CNDAC compound was dissolved or suspended in 0.5% hydroxypropyl methyl cellulose solution which had been buffered with 100 mM citrate buffer (pH 6.0). From the next day after grouping, the mixture was perorally administered to each mouse once a day for consecutive 14 days in a dose which is equivalent, by mole, to 18 mg/kg/day of CNDAC.
On day 29 after the grouping, large and small diameters of the subcutaneously implanted tumor of each mouse were measured, and relative tumor volume (RTV) and inhibition rate (IR) were calculated by the following equations to evaluate anti-tumor effect of the compound. RTV=Vt1/Vt2 (Equation 2) In the equation, RTV represents ratio of tumor volume, Vt1 represents tumor volume measured on the day of determination, and […]. IR(%)=[1−(RTVtest)/(RTVcont)]×100 (Equation 3) In the equation, IR represents tumor growth inhibition rate, RTVtest represents mean RTV value of a drug-administered group, and RTVcont represents mean RTV value of a non-treatment group.

Question: With `CC(C)C(C)(C)[Si](C)(C)O[C@H]1[C@H](C#N)[C@H](n2ccc(N)nc2=O)O[C@@H]1CO` [Example 19, 3′-O-Dimethylthexylsilyl-2′-cyano-2′-deoxy-1-β-D-arabinofuranosylcytosine] as the molecule, how does the deletion of tumor ([1]; 6 animals per group) read?
Answer: Its deletion of tumor is “deletes tumor in three cases in total six cases”.

Question: And the “change in tumor volume (RTV)” value [1]?
Answer: The value was “greatly reduces the tumor volume as compared with CNDAC and P-CNDAC”.

Question: What about the melting point of the same molecule?
Answer: The melting point was 159 to 161 °C.

Question: What about the inhibition in vivo [2] of the same molecule?
Answer: Its inhibition in vivo is 89%.
